In PMC6271756, “Synthesis of Caffeic Acid Amides Bearing 2,3,4,5-Tetra-hydrobenzo[b][1,4]dioxocine Moieties and Their Biological Evaluation as Antitumor Agents” (Molecules, 2014):

Key:
Hela = test: Cell proliferation assay (CCK8), Hela; type: cell-based; conditions: Homo sapiens, cells incubated with compounds for 24 h
Procedure: (§1) CCK8 is much more convenient and helpful than MTT for analyzing cell proliferation, because it can be reduced to soluble formazan by dehydrogenase in mitochondria and has little toxicity to cells. Cell proliferation was determined using CCK8 dye (Beyotime Inst. Biotech., Nanjing, China) according to the manufacturer's instructions. Briefly, 1–5 × 10^3 cells per well were seeded on a 96-well plate, and grown at 37 °C for 12 h. Subsequently, cells were treated with all synthesized compounds at increasing concentrations in the presence of 10% FBS for 24 h. After addition of 10 μL CCK8 dyeto each well, cells were incubated at 37 °C for 2 h and plates were read on a Victor-V multilabel counter (Perkin-Elmer, Männedorf, Switzerland) using the default […]. Percent inhibition or IC50 values of compounds were calculated by comparison with DMSO-treated control wells.

HepG2 = test: Cell proliferation assay (CCK8), HepG2; type: cell-based; conditions: for IC50: Homo sapiens, HepG2, cells incubated with compounds for 24 h, CCK8
Procedure: as §1

A431 = test: Cell proliferation assay (CCK8), A431; type: cell-based; conditions: Homo sapiens, A-431, cells incubated with compounds for 24 h
Procedure: as §1

EGFR = target: T1, EGFR (Homo sapiens, UniProt P00533); test: EGFR kinase autophosphorylation assay (DELFIA/Time Resolved Fluorometry); type: biochemical; conditions: enzyme incubated with compounds for 70 min
T1 construct: EGFR cytoplasmic domain (EGFR-CD, amino acids 645–1186); (His)6 (N); made in house; host or cells: Sf-9 insect cells (baculovirus)
Procedure: A sequence that encodes (His)6 was located at the 5' upstream to the EGFR sequences. Sf-9 cells were infected for 3 days for protein expression. Sf-9 cell pellets were solubilized at 0 °C in a buffer at pH 7.4 containing 50 mM HEPES, 10 mM NaCl, 1% Triton, 10 μM ammonium molybdate, 100 μM sodium vanadate, 10 μg/mL aprotinin, 10 μg/mL leupeptin, 10 μg/mL pepstatin, and 16 μg/mL benzamidine HCl for 20 min followed by 20 min centrifugation. Crude extract supernatant was passed through an equilibrated Ni-NTA superflow packed column and washed with 10 mM and then 100 mM imidazole to remove nonspecifically bound material. Histidine tagged proteins were eluted with 250 and 500 mM imidazole and dialyzed against 50 mM NaCl, 20 mM HEPES, 10% glycerol, and 1 μg/mL each of aprotinin, leupeptin, and pepstatin for 2 h. The entire purification procedure was performed at 4 °C or on ice.
EGFR kinase assays was set up to assess the level of autophosphorylation based on DELFIA/Time Resolved Fluorometry. […] In each well, 10 μL compound was incubated with 10 μL (5 ng for EGFR) recombinant enzyme (1:80 dilution in 100 mM HEPES) for 10 min at room temperature. Then, 10 μL of 5× buffer (containing 20 mM HEPES, 2 mM MnCl2, 100 μM Na3VO4, and 1 mM DTT) and 20 μL of 0.1 mM ATP-50 mM MgCl2 were added for 1 h. Positive and negative controls were included in each plate by incubation of enzyme with or without ATP-MgCl2.
At the end of incubation, liquid was aspirated, and plates were washed three times with wash buffer. A 75 μL (400 ng) sample of europium labeled anti-phosphotyrosine antibody was added to each well for another 1 h of incubation. After washing, enhancement solution was added and the signal was detected by Victor (Wallac Inc., Männedorf, Switzerland) with excitation at 340 nm and emission at 615 nm. The percentage of autophosphorylation inhibition by the compounds was calculated using the following equation: 100% − [[…]] (1)
The IC50 was obtained from curves of percentage inhibition with eight concentrations of compound.

HepG2 cell migration = test: Cell migration assay (Trans well); type: cell-based; conditions: 0.06, 0.08, 0.1 μM, 24 h
Procedure: A cell migration assay was conducted as described previously (Qian et al.), with a slight modification. In brief, the cells were serum-starved overnight, and the transwells were coated with […] (ECL) cell attachment matrix (Upstate Biotechnology, Lake Placid, NY, USA) at 20 μg/mL. The top chambers of transwells were loaded with 0.2 mL of cells (4 × 10^5 cells/mL) in serum-free media, and the bottom chambers were loaded with 0.6 mL of MEM media containing 0.5% FBS. The cells were incubated in the transwells at 37 °C in 5% CO2 for 24 h. A microplate reader was used to measure the optical density of the eluted solutions in order to determine their migration values. Mean values were obtained from three individual experiments.

HepG2 cell = test: Apoptosis assay by flow cytometry (AnnexinV-FITC/PI); type: cell-based
Procedure: Approximately 10^5 cells/well were plated in a 24 well plate and allowed to adhere. After 24 h, the medium was replaced with fresh culture medium containing compounds D9 at final concentrations of 4, 6, 8 μM. Nontreated wells received an equivalent volume of ethanol (<0.1%). They were trypsinized, washed in PBS and centrifuged at 2,000 rpm for 5 min. The pellet was then resuspended in 500 μL of staining solution (containing 5 μL AnnexinV-FITC and 5 μL PI in Binding Buffer), mixed gently and incubated for 15 min at room temperature (15–25 °C) in dark. The sample were then read in FACScalibur flow cytometer (BD Company, New Jersey, USA) at 488 nm excitation.

T1 sequence (P00533 669-1210): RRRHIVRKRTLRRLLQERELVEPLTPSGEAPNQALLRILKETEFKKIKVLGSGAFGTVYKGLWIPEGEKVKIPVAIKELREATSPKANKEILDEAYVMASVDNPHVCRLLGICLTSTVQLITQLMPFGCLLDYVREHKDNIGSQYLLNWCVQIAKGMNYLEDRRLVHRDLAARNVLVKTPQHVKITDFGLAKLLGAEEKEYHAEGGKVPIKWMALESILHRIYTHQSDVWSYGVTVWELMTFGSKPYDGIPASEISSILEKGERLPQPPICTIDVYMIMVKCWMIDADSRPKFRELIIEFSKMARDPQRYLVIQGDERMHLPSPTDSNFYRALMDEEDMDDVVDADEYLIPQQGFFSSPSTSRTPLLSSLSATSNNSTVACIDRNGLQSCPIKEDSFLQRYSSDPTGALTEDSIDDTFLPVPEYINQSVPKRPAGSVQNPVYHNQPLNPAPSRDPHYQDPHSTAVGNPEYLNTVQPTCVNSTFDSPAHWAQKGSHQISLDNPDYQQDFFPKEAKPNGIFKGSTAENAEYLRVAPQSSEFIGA

IC50 (Hela)	IC50 (HepG2)	IC50 (A431)	IC50 (EGFR)	melting point	SMILES	effect on HepG2 cell survival ratios (CCK8 assay) (HepG2; concentrations lower than 0.1 μM)	amount of migrating HepG2 cells vs control (HepG2 cell migration)	percentage of cell apoptosis (HepG2 cell; HepG2, 4 μM)	percentage of cell apoptosis (HepG2 cell; HepG2, 6 μM)	percentage of cell apoptosis (HepG2 cell; HepG2, 8 μM)
105 µM	56 µM	41 µM	–	–	O=C(O)/C=C/c1ccc2c(c1)OCCCCO2 [C, (E)-3-(2,3,4,5-tetrahydrobenzo[b][1,4]dioxocin-8-yl)acrylic acid]	–	–	–	–	–
544 µM	225 µM	93.5 µM	–	–	O=C(O)/C=C/c1ccc(O)c(O)c1 [Caffeic acid]	–	–	–	–	–
13.6 µM	3.47 µM	16.6 µM	7.25 µM	125 to 126 °C	O=C(/C=C/c1ccc2c(c1)OCCCCO2)Nc1ccc([N+](=O)[O-])cc1 [Compound D1, (E)-N-(4-nitrophenyl)-3-(2,3,4,5-tetrahydrobenzo[b][1,4]dioxocin-8-yl)acrylamide]	–	–	–	–	–
28.2 µM	9.4 µM	24.7 µM	–	119 to 120 °C	O=C(/C=C/c1ccc2c(c1)OCCCCO2)Nc1ccccc1[N+](=O)[O-] [Compound D2, (E)-N-(2-nitrophenyl)-3-(2,3,4,5-tetrahydrobenzo[b][1,4]dioxocin-8-yl)acrylamide]	–	–	–	–	–
19.6 µM	10.2 µM	8.96 µM	–	171 to 172 °C	COc1ccc(NC(=O)/C=C/c2ccc3c(c2)OCCCCO3)cc1OC [Compound D3, (E)-N-(3,4-dimethoxyphenyl)-3-(2,3,4,5-tetrahydrobenzo[b][1,4]dioxocin-8-yl)acrylamide]	–	–	–	–	–
23.7 µM	11.1 µM	10 µM	–	115 to 116 °C	COc1cc(NC(=O)/C=C/c2ccc3c(c2)OCCCCO3)cc(OC)c1 [Compound D4, (E)-N-(3,5-dimethoxyphenyl)-3-(2,3,4,5–tetrahydrobenzo[b][1,4]dioxocin-8-yl)acrylamide]	–	–	–	–	–
21.4 µM	10.5 µM	9.31 µM	–	110 to 111 °C	COc1ccc(OC)c(NC(=O)/C=C/c2ccc3c(c2)OCCCCO3)c1 [Compound D5, (E)-N-(2,5-dimethoxyphenyl)-3-(2,3,4,5-tetrahydrobenzo[b][1,4]dioxocin-8-yl)acrylamide]	–	–	–	–	–
25.7 µM	13.2 µM	11.7 µM	–	145 to 146 °C	COc1cc(NC(=O)/C=C/c2ccc3c(c2)OCCCCO3)cc(OC)c1OC [Compound D6, (E)-3-(2,3,4,5-tetrahydrobenzo[b][1,4]dioxocin-8-yl)-N-(3,4,5-trimethoxyphenyl)acrylamide]	–	–	–	–	–
8.71 µM	3.16 µM	12.6 µM	6.78 µM	104 to 105 °C	COc1cccc(NC(=O)/C=C/c2ccc3c(c2)OCCCCO3)c1 [Compound D7, (E)-N-(3-methoxyphenyl)-3-(2,3,4,5-tetrahydrobenzo[b][1,4]dioxocin-8-yl)acrylamide]	–	–	–	–	–
7.04 µM	0.95 µM	7.42 µM	0.85 µM	112 to 113 °C	COc1ccc(NC(=O)/C=C/c2ccc3c(c2)OCCCCO3)cc1 [Compound D8, (E)-N-(4-methoxyphenyl)-3-(2,3,4,5-tetrahydrobenzo[b][1,4]dioxocin-8-yl)acrylamide]	–	–	–	–	–
6.75 µM	0.79 µM	7.03 µM	0.36 µM	137 to 139 °C	CCOc1ccc(NC(=O)/C=C/c2ccc3c(c2)OCCCCO3)cc1 [Compound D9, (E)-N-(4-ethoxyphenyl)-3-(2,3,4,5-tetrahydrobenzo[b][1,4]dioxocin-8-yl)acrylamide]	no effect	less than control group	17.99%	26.83%	41.1%
18.5 µM	6.87 µM	20 µM	12.4 µM	109 to 110 °C	O=C(/C=C/c1ccc2c(c1)OCCCCO2)Nc1cccc(Cl)c1 [Compound D10, (E)-N-(3-chlorophenyl)-3-(2,3,4,5-tetrahydrobenzo[b][1,4]dioxocin-8-yl)acrylamide]	–	–	–	–	–
16.7 µM	4.94 µM	18.9 µM	8.97 µM	127 to 128 °C	O=C(/C=C/c1ccc2c(c1)OCCCCO2)Nc1ccccc1Cl [Compound D11, (E)-N-(2-chlorophenyl)-3-(2,3,4,5-tetrahydrobenzo[b][1,4]dioxocin-8-yl)acrylamide]	–	–	–	–	–
10.8 µM	6.28 µM	14.2 µM	12 µM	112 to 113 °C	Cc1cccc(NC(=O)/C=C/c2ccc3c(c2)OCCCCO3)c1 [Compound D12, (E)-3-(2,3,4,5-tetrahydrobenzo[b][1,4]dioxocin-8-yl)-N-m-tolylacrylamide]	–	–	–	–	–
24.3 µM	15.2 µM	14.1 µM	–	107 to 108 °C	Cc1ccc(Cl)cc1NC(=O)/C=C/c1ccc2c(c1)OCCCCO2 [Compound D13, (E)-N-(5-chloro-2-methylphenyl)-3-(2,3,4,5-tetrahydrobenzo[b][1,4]dioxocin-8-yl)acrylamide]	–	–	–	–	–
30.8 µM	9.03 µM	22.6 µM	–	110 to 111 °C	O=C(/C=C/c1ccc2c(c1)OCCCCO2)Nc1ccc(Br)cc1F [Compound D14, (E)-N-(4-bromo-2-fluorophenyl)-3-(2,3,4,5-tetrahydrobenzo[b][1,4]dioxocin-8-yl)acrylamide]	–	–	–	–	–
5.15 µM	1.48 µM	17.8 µM	2.18 µM	86 to 87 °C	O=C(/C=C/c1ccc2c(c1)OCCCCO2)NCc1ccccc1F [Compound D15, (E)-N-(2-fluorobenzyl)-3-(2,3,4,5-tetrahydrobenzo[b][1,4]dioxocin-8-yl)acrylamide]	–	–	–	–	–
9.04 µM	2.38 µM	7.96 µM	3.52 µM	107 to 108 °C	O=C(/C=C/c1ccc2c(c1)OCCCCO2)Nc1ccc(Br)cc1 [Compound D16, (E)-N-(4-bromophenyl)-3-(2,3,4,5-tetrahydrobenzo[b][1,4]dioxocin-8-yl)acrylamide]	–	–	–	–	–
19.5 µM	7.9 µM	21.6 µM	–	116 to 117 °C	O=C(/C=C/c1ccc2c(c1)OCCCCO2)Nc1cccc(F)c1 [Compound D17, (E)-N-(3-fluorophenyl)-3-(2,3,4,5-tetrahydrobenzo[b][1,4]dioxocin-8-yl)acrylamide]	–	–	–	–	–

SMILES	IC50 (Hela)	IC50 (HepG2)	IC50 (A431)	IC50 (EGFR)	melting point	effect on HepG2 cell survival ratios (CCK8 assay) (HepG2; concentrations lower than 0.1 μM)	amount of migrating HepG2 cells vs control (HepG2 cell migration)	percentage of cell apoptosis (HepG2 cell; HepG2, 4 μM)	percentage of cell apoptosis (HepG2 cell; HepG2, 6 μM)	percentage of cell apoptosis (HepG2 cell; HepG2, 8 μM)
C#Cc1cccc(Nc2ncnc3cc(OCCOC)c(OCCOC)cc23)c1 [Erlotinib, reference compound]	–	0.08 µM	0.04 µM	–	–	–	–	–	–	–
